Test results as given in the supplement of paper PMC11208160.

Assay: recombinant UMI read abundance after kanamycin selection (control-corrected) (log10(CPM+1)); higher = more efficient recombination; extreme values may be limits of the assay; sequences stand for … in AGTGCAGAGAAAATCGGCCAGTTTTCTCTGCCTGCAGTCCGCATGCCGTGGGACCCCTTGGGTTCTAACCTGTTGCCTAGATTTATGCAGCGGACTGCCTTTCTCCCAAAGTGATAAACCGG…AGGTTGGTTTCACT; site = the 11-nt donor
Procedure, shortened: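 Values, expressed as log10(CPM+1), derive from recombinant UMI counts converted to CPM, averaged across replicates and scaled by control-derived factors. Plating was with IPTG (0.07 mM) plus kanamycin or unselected, two replicates each. The screen pooled donor and donor-binding-loop pairs for the IS621 bridge recombinase in Escherichia coli.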
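Also: IS621 bridge recombinase in Escherichia coli cells against a fixed T5 target plasmid.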

Sequence	recombinant UMI read abundance (log10)
GCCACGACATGGACCGGTTTTCCCGGTAATCCGTATTTGTA (site GCCACGCCTTA)	0.00858
GCCACGACATGGACCGGTTTTCCCGGTAATCCGTATTTGTA (site GCCACGGCTTA)	0.423
GCCACGACATGGACCGGTTTTCCCGGTAATCCGTATTTGTA (site GCCACGTCTTA)	0.283
GCCAGGACATGGACCGGTTTTCCCGGTAATCCGTATTTGTT (site GCCAGGACTAA)	1.71
GCCAGGCCATGGACCGGTTTTCCCGGTAATCCGTATTTGTA (site GCCAAGCCTTA)	0.198
GCCAGGCCATGGACCGGTTTTCCCGGTAATCCGTATTTGTA (site GCCACGCCTTA)	0.00645
GCCAGGCCATGGACCGGTTTTCCCGGTAATCCGTATTTGTA (site GCCAGGCCTTA)	0.112
GCCAGGCCATGGACCGGTTTTCCCGGTAATCCGTATTTGTA (site GCCATGCCTTA)	0.00384
GCCATATCATGGACCGGTTTTCCCGGTAATCCGTATTTGTC (site ACCATATCTGA)	1.74
GCCATATCATGGACCGGTTTTCCCGGTAATCCGTATTTGTC (site CCCATATCTGA)	0.61
GCCATATCATGGACCGGTTTTCCCGGTAATCCGTATTTGTC (site GCCATATCTGA)	1.87
GCCATATCATGGACCGGTTTTCCCGGTAATCCGTATTTGTC (site TCCATATCTGA)	1.87
GCCCACCCATGGACCGGTTTTCCCGGTAATCCGTATTTGAA (site GCCCACCCTTT)	0.362
GCCCCTACATGGACCGGTTTTCCCGGTAATCCGTATTTGCC (site GCCCCTACTGG)	2.33
GCCCGAACATGGACCGGTTTTCCCGGTAATCCGTATTTGTC (site GCCCGAACTGA)	1.98
GCCGACTCATGGACCGGTTTTCCCGGTAATCCGTATTTGCG (site GCCGACTCTCG)	2.35
GCCGAGCCATGGACCGGTTTTCCCGGTAATCCGTATTTGTA (site GCCGAGCCTTA)	0.381
GCCGCACCATGGACCGGTTTTCCCGGTAATCCGTATTTGGA (site GCCGCACCTTC)	0.0196
GCCGCGCCATGGACCGGTTTTCCCGGTAATCCGTATTTGGG (site GCCGCGCCTCC)	0.0148
GCCGTCCCATGGACCGGTTTTCCCGGTAATCCGTATTTGCA (site GCCGTCCCTTG)	0.345
GCCTACCCATGGACCGGTTTTCCCGGTAATCCGTATTTGAA (site GCCTACCCTTT)	0.0461
GCCTAGACATGGACCGGTTTTCCCGGTAATCCGTATTTGGG (site ACCTAGACTCC)	0.186
GCCTAGACATGGACCGGTTTTCCCGGTAATCCGTATTTGGG (site CCCTAGACTCC)	0.0341
GCCTAGACATGGACCGGTTTTCCCGGTAATCCGTATTTGGG (site GCCTAGACTCC)	0.283
GCCTAGACATGGACCGGTTTTCCCGGTAATCCGTATTTGGG (site TCCTAGACTCC)	0.0888

Sequence	recombinant UMI read abundance (log10)
GCCTAGCCATGGACCGGTTTTCCCGGTAATCCGTATTTGCC (site ACCTAGCCTGG)	0
GCCTAGCCATGGACCGGTTTTCCCGGTAATCCGTATTTGCC (site CCCTAGCCTGG)	0
GCCTAGCCATGGACCGGTTTTCCCGGTAATCCGTATTTGCC (site GCCTAGCCTGG)	0
GCCTAGCCATGGACCGGTTTTCCCGGTAATCCGTATTTGCC (site TCCTAGCCTGG)	0
GCCTCCCCATGGACCGGTTTTCCCGGTAATCCGTATTTGGA (site GCCTCCCCTTC)	0.0286
GCCTGGACATGGACCGGTTTTCCCGGTAATCCGTATTTGGC (site GCCTGGACTGC)	0.0803
GCCTTCACATGGACCGGTTTTCCCGGTAATCCGTATTTGTT (site GCCTTCACTAA)	0.931
GCCTTCTCATGGACCGGTTTTCCCGGTAATCCGTATTTGGG (site ACCTTCTCTCC)	0.00678
GCCTTCTCATGGACCGGTTTTCCCGGTAATCCGTATTTGGG (site CCCTTCTCTCC)	0.0122
GCCTTCTCATGGACCGGTTTTCCCGGTAATCCGTATTTGGG (site GCCTTCTCTCC)	0.00741
GCCTTCTCATGGACCGGTTTTCCCGGTAATCCGTATTTGGG (site TCCTTCTCTCC)	0.0193
GCGAAACCATGGACCGGTTTTCCCGGTAATCCGTATTTGGG (site GCGAAACCTCC)	0
GCGAAACCATGGACCGGTTTTCCCGGTAATCCGTATTTGGG (site GCGAACCCTCC)	0.0118
GCGAAACCATGGACCGGTTTTCCCGGTAATCCGTATTTGGG (site GCGAAGCCTCC)	0.0136
GCGAAACCATGGACCGGTTTTCCCGGTAATCCGTATTTGGG (site GCGAATCCTCC)	0
GCGAAACCATGGACCGGTTTTCCCGGTAATCCGTATTTGTG (site GCGAAACCTCA)	0
GCGAACCCATGGACCGGTTTTCCCGGTAATCCGTATTTGAA (site GCGAACCCTTT)	2.49
GCGAACGCATGGACCGGTTTTCCCGGTAATCCGTATTTGCT (site GCGAACGCTAG)	2.26
GCGAAGACATGGACCGGTTTTCCCGGTAATCCGTATTTGTT (site GCGAAGACTAA)	2.37
GCGAAGCCATGGACCGGTTTTCCCGGTAATCCGTATTTGAG (site GCGAAGCCTCA)	0.0311
GCGAAGCCATGGACCGGTTTTCCCGGTAATCCGTATTTGAG (site GCGAAGCCTCC)	0.0267
GCGAAGCCATGGACCGGTTTTCCCGGTAATCCGTATTTGAG (site GCGAAGCCTCG)	0
GCGAAGCCATGGACCGGTTTTCCCGGTAATCCGTATTTGAG (site GCGAAGCCTCT)	0.00807
GCGAAGCCATGGACCGGTTTTCCCGGTAATCCGTATTTGGG (site ACGAAGCCTCC)	0.0189
GCGAAGCCATGGACCGGTTTTCCCGGTAATCCGTATTTGGG (site CCGAAGCCTCC)	0.0227

Sequence	recombinant UMI read abundance (log10)
GCGAAGCCATGGACCGGTTTTCCCGGTAATCCGTATTTGGG (site GAGAAGCCTCC)	0.00349
GCGAAGCCATGGACCGGTTTTCCCGGTAATCCGTATTTGGG (site GCAAAGCCTCC)	0.00547
GCGAAGCCATGGACCGGTTTTCCCGGTAATCCGTATTTGGG (site GCCAAGCCTCC)	0
GCGAAGCCATGGACCGGTTTTCCCGGTAATCCGTATTTGGG (site GCGAAACCTCC)	0
GCGAAGCCATGGACCGGTTTTCCCGGTAATCCGTATTTGGG (site GCGAACCCTCC)	0
GCGAAGCCATGGACCGGTTTTCCCGGTAATCCGTATTTGGG (site GCGAAGACTCC)	0.0597
GCGAAGCCATGGACCGGTTTTCCCGGTAATCCGTATTTGGG (site GCGAAGCCTAC)	0
GCGAAGCCATGGACCGGTTTTCCCGGTAATCCGTATTTGGG (site GCGAAGCCTCA)	0.00806
GCGAAGCCATGGACCGGTTTTCCCGGTAATCCGTATTTGGG (site GCGAAGCCTCC)	0.00509
GCGAAGCCATGGACCGGTTTTCCCGGTAATCCGTATTTGGG (site GCGAAGCCTCG)	0
GCGAAGCCATGGACCGGTTTTCCCGGTAATCCGTATTTGGG (site GCGAAGCCTCT)	0.00749
GCGAAGCCATGGACCGGTTTTCCCGGTAATCCGTATTTGGG (site GCGAAGCCTGC)	0
GCGAAGCCATGGACCGGTTTTCCCGGTAATCCGTATTTGGG (site GCGAAGCCTTC)	0.0136
GCGAAGCCATGGACCGGTTTTCCCGGTAATCCGTATTTGGG (site GCGAAGGCTCC)	0
GCGAAGCCATGGACCGGTTTTCCCGGTAATCCGTATTTGGG (site GCGAAGTCTCC)	0.00693
GCGAAGCCATGGACCGGTTTTCCCGGTAATCCGTATTTGGG (site GCGAATCCTCC)	0.0162
GCGAAGCCATGGACCGGTTTTCCCGGTAATCCGTATTTGGG (site GCGACGCCTCC)	0.00657
GCGAAGCCATGGACCGGTTTTCCCGGTAATCCGTATTTGGG (site GCGAGGCCTCC)	0.0307
GCGAAGCCATGGACCGGTTTTCCCGGTAATCCGTATTTGGG (site GCGATGCCTCC)	0
GCGAAGCCATGGACCGGTTTTCCCGGTAATCCGTATTTGGG (site GCGCAGCCTCC)	0.011
GCGAAGCCATGGACCGGTTTTCCCGGTAATCCGTATTTGGG (site GCGGAGCCTCC)	0.0363
GCGAAGCCATGGACCGGTTTTCCCGGTAATCCGTATTTGGG (site GCGTAGCCTCC)	0.0104
GCGAAGCCATGGACCGGTTTTCCCGGTAATCCGTATTTGGG (site GCTAAGCCTCC)	0.0212
GCGAAGCCATGGACCGGTTTTCCCGGTAATCCGTATTTGGG (site GGGAAGCCTCC)	0.0306
GCGAAGCCATGGACCGGTTTTCCCGGTAATCCGTATTTGGG (site GTGAAGCCTCC)	0.0355
